EC50 and Emax data for 23 compounds are collected here from patent US9453038B2, “Glucokinase activator compounds, compositions containing such compounds, and methods of treatment” (Merck Sharp & Dohme Corp., priority 2012, dated 2016).

In the test the target is Recombinant human liver glucokinase (FLAG fusion protein) (Homo sapiens (Human), UniProt P35557). The test is described as follows: glucokinase (GK) activation assay, Thio-NADH formation coupled to G6PDH, absorbance at 405 nm. The test is classed as biochemical. Particulars: 2.5 mM Glu; for pEC50: 30° C.; for Emax: OD value of DMSO control regarded as 100%. The source says: The glucokinase activity can, for instance, be determined without directly measuring glucose-6-phosphate by measuring the amount of Thio-NADH generated during the production of phosphogluconolactone from glucose-6-phosphate by a reporter enzyme glucose-6-phosphate dehydrogenase.
To test the exemplified compounds, the following assay was employed. Recombinant human liver glucokinase was expressed as a FLAG fusion protein in E. coli, and purified on ANTIFLAG M2 AFFINITY GEL (Sigma). The assay was carried out at 30° C. in a 96-well plate. In the plate was distributed 69 μl each of assay buffer (25 mM Hepes Buffer: pH=7.2, 2 mM MgCl2, 1 mM ATP, 0.5 mM TNAD, 1 mM dithiothreitol), to which was added 1 μl of a DMSO solution of the compound or DMSO as control. Then, 20 μl of pre-ice-cooled enzyme mixture (FLAG-GK, 20 U/ml G6PDH) was distributed thereto, to which was added 10 μl of 25 mM glucose as substrate to initiate the reaction (final glucose concentration=2.5 mM). After starting the reaction, the absorbance at 405 nm was measured every 30 seconds for 10 minutes to evaluate the compound based on the initial increase for 5 minutes. FLAG-GK was added so that the increase of absorbance after 5 minutes fell between 0.05 to 0.1 in the presence of 1% DMSO.
The OD values of the respective compounds were measured in the respective concentrations, wherein the OD value of DMSO as control is regarded as 100%. From the OD values at the respective concentrations, Emax (%, 2.5 mM Glu) and EC50 (nM, 2.5 mM Glu) were calculated and used as indicators of the GK activation capability of the compounds. According to the above assay, the GK activation capability of the exemplified compounds of the present invention was determined. […] Where different enantiomers of the same compound were tested, two numbers are provided. Where 3 numbers are provided, for example, Ex. #30, data for the racemic form is also shown.

pEC50: −log10 of the molar value. Like-named read-outs stand apart in the source and are kept apart here.

Chain of Recombinant human liver glucokinase (FLAG fusion protein) (P35557 other isoform, or with tags, fused parts or gaps): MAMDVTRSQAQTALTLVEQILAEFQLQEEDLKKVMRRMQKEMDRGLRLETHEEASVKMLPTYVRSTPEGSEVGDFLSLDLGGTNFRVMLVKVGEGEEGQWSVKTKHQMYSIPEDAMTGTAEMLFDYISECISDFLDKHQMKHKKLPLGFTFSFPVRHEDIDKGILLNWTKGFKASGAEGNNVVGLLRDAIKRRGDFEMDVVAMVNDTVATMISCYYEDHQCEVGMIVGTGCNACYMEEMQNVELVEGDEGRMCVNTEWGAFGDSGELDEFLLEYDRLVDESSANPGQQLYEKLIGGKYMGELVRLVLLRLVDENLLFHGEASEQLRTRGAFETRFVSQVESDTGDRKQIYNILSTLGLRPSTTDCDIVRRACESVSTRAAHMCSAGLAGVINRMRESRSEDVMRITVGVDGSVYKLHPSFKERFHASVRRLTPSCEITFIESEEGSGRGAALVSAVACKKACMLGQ

Take `CCS(=O)(=O)c1ccc(Oc2cc3cc(-c4ccc(CCC(=O)OC)cn4)[nH]c3cc2C2CCC(=O)N2C)cc1` (stereo not drawn) [Example 1, METHYL 3-(6-{5-[4-(ETHYLSULFONYL)PHENOXY]-6-(1-METHYL-5-OXOPYRROLIDIN-2-YL)-1H-INDOL-2-YL}PYRIDIN-3-YL)PROPANOATE]: the pEC50 (in general, −log10 of the EC50, conventionally taken in molar units) was 8.72. For the setting “read-out: Emax”, the Emax (commonly the maximal effect, on the per cent scale that the assay sets) was 624%.
The like results for `CCS(=O)(=O)c1ccc(Oc2cc3cc(-c4ccc(CCC(=O)O)cn4)[nH]c3cc2C2CCC(=O)N2C)cc1` (stereo not drawn) [Example 2, 3-(6-{5-[4-(ETHYLSULFONYL)PHENOXY]-6-(1-METHYL-5-OXOPYRROLIDIN-2-YL)-1H-INDOL-2-YL}PYRIDIN-3-YL)PROPANOIC ACID] were, in that order, 7.27 and 652%.
For `CCS(=O)(=O)c1ccc(Oc2cc3cc(-c4ccc(C(F)(F)F)cn4)[nH]c3cc2C2CCC(=O)N2CC(=O)O)cc1` (stereo not drawn) [Example 3, (2-{5-[4-(ETHYLSULFONYL)PHENOXY]-2-[5-(TRIFLUOROMETHYL)PYRIDIN-2-YL]-1H-INDOL-6-YL}-5-OXOPYRROLIDIN-1-YL)ACETIC ACID], in that order: 6.10 and 628%.
Regarding `COC(=O)CCc1ccc(Oc2cc3cc(-c4ccc(C(F)(F)F)cn4)[nH]c3cc2C2CCC(=O)N2C)cc1` (stereo not drawn) [Example 4, METHYL 3-[4-({6-(1-METHYL-5-OXOPYRROLIDIN-2-YL)-2-[5-(TRIFLUORO-METHYL)PYRIDIN-2-YL]-1H-INDOL-5-YL}OXY)PHENYL]PROPIONATE], the Emax worked out at 453.8%. For the same compound, the Emax (read-out: Emax) worked out at 455%.
On to `CS(=O)(=O)c1ccc(Oc2cc3cc(-c4ccc(CCC(=O)O)cn4)[nH]c3cc2Oc2ccccc2F)cc1` [Example 7, 3-(6-{6-(2-FLUOROPHENOXY)-5-[4-(METHYLSULFONYL)PHENOXY]-1H-INDOL-2-YL}PYRIDIN-3-YL)PROPANOIC ACID], for which the pEC50 was 6.11. The maximum response (Emax) (read-out: Emax) is 15.7%.
Consider `CN1C(=O)CCC1c1cc2[nH]c(-c3ccc(C(=O)NCCC(=O)O)cn3)cc2cc1Oc1ccc(S(C)(=O)=O)nc1` (stereo not drawn) [Example 8, N-({6-[6-(1-METHYL-5-OXOPYRROLIDIN-2-YL)-5-{[6-(METHYL-SULFONYL)PYRIDIN-3-YL]OXY}-1H-INDOL-2-YL]PYRIDIN-3-YL}-CARBONYL)-β-ALANINE], for which the pEC50 was 6.93. In addition, the Emax (read-out: Emax) stood at 501%.
Turning to `CS(=O)(=O)c1ccc(Oc2cc3cc(-c4ccc(CCC(=O)O)cn4)[nH]c3nc2CN2CCCC2=O)cn1` [Example 9, 3-[6-(5-{[6-(METHYLSULFONYL)PYRIDIN-3-YL]OXY}-6-[(2-OXOPYRROLIDIN-1-YL)METHYL]-1H-PYRROLO[2,3-B]PYRIDIN-2-YL)PYRIDIN-3-YL]PROPANOIC ACID], the pEC50 is 6.27.
As to `COC(=O)CCc1ccc(-c2cc3cc(Oc4ccc(C(=O)N5CCC5)nc4)c(C4CCCN4C(C)=O)cc3[nH]2)nc1` (stereo not drawn) [Example 10, METHYL 3-{6-[6-(1-ACETYLPYRROLIDIN-2-YL)-5-{[6-(AZETIDIN-1-YLCARBONYL)PYRIDIN-3-YL]OXY}-1H-INDOL-2-YL]PYRIDIN-3-YL}PROPANOATE], the negative logarithm of the EC50 (pEC50) is 7.86. Besides, for the setting “read-out: Emax”, the maximal effect (Emax) was found to be 419%.
For `CC(=O)N1CCCC1c1cc2[nH]c(-c3ccc(CCC(=O)O)cn3)cc2cc1Oc1ccc(C(=O)N2CCC2)nc1` (stereo not drawn) [Example 11, 3-{6-[6-(1-ACETYLPYRROLIDIN-2-YL)-5-{[6-(AZETIDIN-1-YLCARBONYL)PYRIDIN-3-YL]OXY}-1H-INDOL-2-YL]PYRIDIN-3-YL}PROPANOIC ACID], in that order: 6.73 and 410%.
On to `CCS(=O)(=O)c1ccc(Oc2cc3cc(-c4ccc(P(C)(=O)O)cn4)[nH]c3cc2C2CCC(=O)N2C)cc1` (stereo not drawn) [Example 12, (6-(5-(4-(ETHYLSULFONYL)PHENOXY)-6-(1-METHYL-5-OXOPYRROLIDIN-2-YL)-1H-INDOL-2-YL)PYRIDIN-3-YL)(METHYL)PHOSPHINIC ACID], for which the pEC50 was 7.27. The maximal effect (Emax) (read-out: Emax) turned out to be 614%.
In the case of `CN1C(=O)CCC1c1cc2[nH]c(-c3ccc(CC(C)(C)C(=O)O)cn3)cc2cc1Oc1ccc(S(C)(=O)=O)nc1` (stereo not drawn) [Example 17, 2,2-dimethyl-3-(6-(6-(1-methyl-5-oxopyrrolidin-2-yl)-5-((6-(methylsulfonyl)pyridin-3-yl)oxy)-1H-indol-2-yl)pyridin-3-yl)propanoic acid], the pEC50 is 6.97. The Emax (read-out: Emax) was 643%.
For `CN1C(=O)CCC1c1cc2[nH]c(-c3ccc(OCC(=O)O)cn3)cc2cc1Oc1ccc(S(C)(=O)=O)nc1` (stereo not drawn) [Example 18, 2-((6-(6-(1-methyl-5-oxopyrrolidin-2-yl)-5-((6-(methylsulfonyl)pyridin-3-yl)oxy)-1H-indol-2-yl)pyridin-3-yl)oxy)acetic acid], in that order: 7.09 and 612%.
For `COCc1ccc(Oc2cc3cc(-c4ccc(CCC(=O)O)cn4)[nH]c3cc2C2CCC(=O)N2C)cn1` (stereo not drawn) [Example 19, 3-(6-(5-((6-(methoxymethyl)pyridin-3-yl)oxy)-6-(1-methyl-5-oxopyrrolidin-2-yl)-1H-indol-2-yl)pyridin-3-yl)propanoic acid], in that order: 7.14 and 431%.
For `CN1C(=O)CCC1c1cc2[nH]c(-c3ccc(C(F)(F)F)cn3)cc2cc1Oc1ccc(CC(=O)O)cc1` (stereo not drawn) [Example 20, 2-(4-((6-(1-methyl-5-oxopyrrolidin-2-yl)-2-(5-(trifluoromethyl)pyridin-2-yl)-1H-indol-5-yl)oxy)phenyl)acetic acid], in that order: 7.19 and 521%.
For the compound `CN1C(=O)CCC1c1cc2[nH]c(-c3cnccn3)cc2cc1Oc1ccc(CCC(=O)O)cc1` (stereo not drawn) [Example 21, 3-(4-((6-(1-methyl-5-oxopyrrolidin-2-yl)-2-(pyrazin-2-yl)-1H-indol-5-yl)oxy)phenyl)propanoic acid], the pEC50 was 7.41. Also, the Emax (read-out: Emax) was 628%.
The like results for `CN1C(=O)CCC1c1cc2[nH]c(-c3ccccc3)cc2cc1Oc1ccc(CCC(=O)O)cc1` (stereo not drawn) [Example 22, 3-(4-((6-(1-methyl-5-oxopyrrolidin-2-yl)-2-phenyl-1H-indol-5-yl)oxy)phenyl)propanoic acid] were, in that order, 6.34 and 410%.
Consider `COC(=O)CCc1ccc(Oc2cc3cc(-c4cnccn4)[nH]c3cc2C2CCC(=O)N2C)cc1` (stereo not drawn) [Example 23, methyl 3-(4-((6-(1-methyl-5-oxopyrrolidin-2-yl)-2-(pyrazin-2-yl)-1H-indol-5-yl)oxy)phenyl)propanoate], for which the pEC50 is 8.68. Further, the Emax (read-out: Emax) was determined as 574%.
For `COC(=O)Cc1ccc(Oc2cc3cc(-c4ccccn4)[nH]c3cc2C2CCC(=O)N2C)cc1` (stereo not drawn) [Example 25, methyl 2-(4-((6-(1-methyl-5-oxopyrrolidin-2-yl)-2-(pyridin-2-yl)-1H-indol-5-yl)oxy)phenyl)acetate], in that order: 7.68 and 649%.
The like results for `COC(=O)CCc1ccc(Oc2cc3cc(-c4ccccn4)[nH]c3cc2C2CCC(=O)N2C)cc1` (stereo not drawn) [Example 26, methyl 3-(4-((6-(1-methyl-5-oxopyrrolidin-2-yl)-2-(pyridin-2-yl)-1H-indol-5-yl)oxy)phenyl)propanoate] were, in that order, 8.37 and 545%.
Consider `CN1C(=O)CCC1c1cc2[nH]c(-c3ccccn3)cc2cc1Oc1ccc(CC(=O)O)cc1` (stereo not drawn) [Example 27, 2-(4-((6-(1-methyl-5-oxopyrrolidin-2-yl)-2-(pyridin-2-yl)-1H-indol-5-yl)oxy)phenyl)acetic acid], for which the negative-log EC50 (pEC50) was 7.62. The maximal effect (Emax) (read-out: Emax) stood at 630%.
Consider `CN1C(=O)CCC1c1cc2[nH]c(-c3nc(CC(=O)O)c(Cl)s3)cc2cc1Oc1ccc(S(C)(=O)=O)nc1` (stereo not drawn) [Example 30, 2-(5-chloro-2-(6-(1-methyl-5-oxopyrrolidin-2-yl)-5-((6-(methylsulfonyl)pyridin-3-yl)oxy)-1H-indol-2-yl)thiazol-4-yl)acetic acid], for which the negative logarithm of the EC50 (pEC50) was 7.31. In addition, the Emax (read-out: Emax) was 506%.
For `CN1C(=O)CCC1c1cc2[nH]c(-c3ncc(CCC(=O)O)s3)cc2cc1Oc1ccc(S(C)(=O)=O)nc1` (stereo not drawn) [Example 31, 3-(2-(6-(1-methyl-5-oxopyrrolidin-2-yl)-5-((6-(methylsulfonyl)pyridin-3-yl)oxy)-1H-indol-2-yl)thiazol-5-yl)propanoic acid], in that order: 7.16 and 599%.
With `COC(=O)Cc1csc(-c2cc3cc(Oc4ccc(S(C)(=O)=O)cc4)c(C4CCC(=O)N4C)cc3[nH]2)n1` (stereo not drawn) [Example 32, methyl 2-(2-(6-(1-methyl-5-oxopyrrolidin-2-yl)-5-(4-(methylsulfonyl)phenoxy)-1H-indol-2-yl)thiazol-4-yl)acetate], the negative-log EC50 (pEC50) is 7.19. Besides, under “read-out: Emax”, the maximum response (Emax) worked out at 566%.
